We go through one molecule from patent US20140287074A1, “Extracts of deschampsia antartica with antineoplastic activity” (Uxmal S.A., Chile, priority 2013, published 2014).

In this assay the test system is LoVo colorectal cancer cells. Nature of the assay: In vitro growth (proliferation, viability) of LoVo colon cancer cells. It is filed as cell-based, human. Here is the method: FIG. 4. Effects of fractions of Deschampsia antarctica in concentrations of 100 μg/ml on in vitro growth of colon cancer cells (HT29 and LoVo), hepatic cancer cells (Hep3B) and control cells (wi38). GCB1, GCB2 and GCB3 correspond to extraction of three different collections of Deschampsia antarctica plants for the Antarctic. The extracts were prepared with water, then dried and dissolved in methanol. Control contains no extract added and the methanol control is a control containing 5% methanol as was used to dissolve the dried aqueous extract.
FIG. 5. Effects of ethyl acetate (a and B) and methanol (c and d) extracts at to concentration of 75 ug/ml on LoVo colorectal cancer cells (a and c) and we38 human fetal fibroblast cells (b and d).
Its effect on WI38 (normal lung fibroblasts) was tested at the maximum concentration to determine specificity and toxicity.
The same extract was tested in WI 38 cells (normal lung fibroblasts).

The structures appear in SMILES notation.

As for `O=c1cc(-c2ccc(O)c(O)c2)oc2c([C@@H]3OC(CO)[C@@H](O)[C@H](O)C3O[C@H]3OC[C@H](O)[C@@H](O)C3O)c(O)cc(O)c12` (single isomer, unassigned; peak 2) [peak 2, orientin 2″-beta-arabinopyranoside], the “concentration at which inhibitory effect on cellular proliferation was observed” value came to 1000 µg/mL (corresponds to 1.7 mM); 1.7 mM (tested at 0.017, 0.17 and 1.7 mM, FIG. 6).
